According to patent publication US20250289793A1, “MACROCYCLIC INHIBITORS OF ATP CITRATE LYASE” (Esperion Therapeutics, Inc., priority 2022, published 2025):
Like-named read-outs stand apart in the source and are kept apart here.

How the values were obtained:
[1] = target: Recombinant human ACLY full length protein (Homo sapiens (Human), UniProt P53396); assay: hACLY ADP-Glo activity assay; type: biochemical; details: 0.5 nM ACLY; 15 μM sodium citrate, 1 μM coenzyme A, 80 μM ATP; ADP formed, luminescence; read-out: ADP-Glo IC50 GMean
Sequence of Recombinant human ACLY full length protein (P53396 whole entry): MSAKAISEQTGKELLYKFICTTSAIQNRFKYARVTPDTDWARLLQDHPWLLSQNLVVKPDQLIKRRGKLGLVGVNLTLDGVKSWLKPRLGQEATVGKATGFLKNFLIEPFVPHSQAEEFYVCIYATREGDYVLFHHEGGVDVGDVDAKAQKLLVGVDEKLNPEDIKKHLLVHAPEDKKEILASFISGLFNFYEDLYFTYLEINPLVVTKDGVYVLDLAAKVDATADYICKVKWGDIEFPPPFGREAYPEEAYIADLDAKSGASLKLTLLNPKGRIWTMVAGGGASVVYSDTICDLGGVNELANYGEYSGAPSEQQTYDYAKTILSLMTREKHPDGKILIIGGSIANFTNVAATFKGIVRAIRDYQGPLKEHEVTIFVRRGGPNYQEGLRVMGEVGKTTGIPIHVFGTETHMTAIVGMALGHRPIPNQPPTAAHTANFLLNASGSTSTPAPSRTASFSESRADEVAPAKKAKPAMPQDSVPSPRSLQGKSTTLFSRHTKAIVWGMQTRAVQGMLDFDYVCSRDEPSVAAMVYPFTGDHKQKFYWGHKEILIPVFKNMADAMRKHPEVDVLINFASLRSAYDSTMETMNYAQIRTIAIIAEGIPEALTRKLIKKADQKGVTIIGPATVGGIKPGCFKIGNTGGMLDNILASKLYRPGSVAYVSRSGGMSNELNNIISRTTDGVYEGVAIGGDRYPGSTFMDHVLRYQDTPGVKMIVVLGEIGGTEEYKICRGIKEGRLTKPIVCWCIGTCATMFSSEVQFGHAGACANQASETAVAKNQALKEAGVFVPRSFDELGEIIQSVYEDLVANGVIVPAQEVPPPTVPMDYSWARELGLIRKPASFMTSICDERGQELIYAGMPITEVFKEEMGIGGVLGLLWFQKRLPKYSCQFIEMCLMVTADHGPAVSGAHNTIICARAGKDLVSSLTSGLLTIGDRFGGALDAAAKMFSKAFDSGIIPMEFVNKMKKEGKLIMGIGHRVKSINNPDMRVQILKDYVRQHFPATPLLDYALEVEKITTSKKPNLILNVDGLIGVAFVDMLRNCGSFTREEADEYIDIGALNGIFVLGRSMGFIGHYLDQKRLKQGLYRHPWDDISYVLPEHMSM
Experimental: Compounds of the disclosure were evaluated for their efficacy in inhibiting hACLY using an ADP-Glo™ assays that measure ADP formed from the enzymatic activity of hACLY.
Test compounds were 3-fold serially diluted in DMSO over 11-point concentration range and dispensed onto a 384-well plate. Recombinant human ACLY full length protein was purified. Concentrations of ACLY protein, sodium citrate, coenzyme A, and ATP in the reaction were optimized for standardized homogenous enzyme assay using ADP-Glo™ Kinase (Promega Inc.). The assay measured ADP formed from the enzymatic reaction.
The reaction buffer consisted of the assay buffer (50 mM HEPES pH 8.0, 10 mM MgCl2, 4 mM 1,4-Dithiothreitol, 0.01% Brij® 35).
ACLY protein (0.5 nM) was added to the prepared reaction buffer, and the mixture was dispensed into the assay plate and incubated for 30 minutes at room temperature. Next, 15 μM sodium citrate, 1 μM coenzyme A, and 80 μM ATP were added into the assay plate and incubated for 60 minutes at room temperature. The final reaction volume for each well was 5 μL.
5 μL of ADP-Glo™ reagent was added, and the mixture was incubated for 40 minutes at room temperature. 10 μl ADP-Glo™ detection reagent was added, and the mixture was incubated for 30 minutes at room temperature. Luminescence was determined using EnVision microplate reader with ultra-luminescence module (Perkin Elmer Inc). Concentration-response curve-fitting and IC50 determination was performed using Xlfit Software (version 5.5.0) with a four-parameter logistic regression fit model.

ACLY [2] = target: T1, ACLY (Homo sapiens (Human), UniProt P53396); assay: Human ACLY (hACLY) RF/MS activity assay; type: biochemical; details: 1 nM hACLY; 30 min pre-incubation; 15 μM Coenzyme A, 50 μM ATP, 50 μM citrate; CoA to Acetyl-CoA by RF/MS; read-out: RFMS IC50 GMean
T1 sequence (P53396 whole entry): as above
In short: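 RapidFire MS read CoA-to-acetyl-CoA conversion as a substrate/product ratio after 30 min at RT (20° C) with final 15 μM CoA, 50 μM ATP, 50 μM citrate. Before substrate addition, 1 nM enzyme sat 30 min with compound (top 10 μM, two-fold dilutions; 1% DMSO) in pH 8.0 Hepes/MgCl2/NaCl/DTT buffer.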

ACLY [3] = target: T1, ACLY; assay: InCell Pulse assay (permeate HEK293 cells, bind to and stabilize ACLY); type: cell-based; details: HEK293 cells transfected with pICP-ACLY(FL)-ePL; 1 hour at 37° C., 55° C. heat pulse 10 minutes; read-out: InCell Pulse IC50 GMean
In short: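 HEK293 cells transiently expressing full-length ACLY-ePL were exposed in OptiMEM to 11-point, 3-fold compound dilutions for 1 h at 37 °C, heat-pulsed 10 min at 55 °C, then lysed for enzyme-fragment complementation luminescence. Four-parameter fit, normalised to 0.5% DMSO and 1 μM NDI-094311.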

HepG2 cells = assay: Fatty acid synthesis (FAS) assay in HepG2 cells; type: cell-based; details: Homo sapiens, 1.5 h, 14C-citrate 50 μM, 90 min, read-out: FAS IC50 GMean
Experimental: HepG2 cells were seeded into white clear-bottom 96-well plates (50,000/well) coated with collagen and incubated at 37° C. for 16-24 hours. Thereafter the plates were washed once with 100 μL PBS (+CaCl2+MgCl2) and 50 μL assay medium ([…] containing 11 mM glucose, 10 mM HEPES and 1 nM Insulin) per well was added. Test substances in assay medium were added (10 μL, 0.5% DMSO) and incubated for 20 min at 37° C. After that 10 μL assay medium containing ^14C-citrate (final concentration 50 μM) and PrestoBlue reagent (lx final concentration; ThermoFisher) were added and incubated for 90 min (37° C., 5% CO2). Cell viability was measured (Multiskan FC, microplate reader, absorbance 570 nm). Medium was removed by inverting the plate and cells were washed once with 100 μL ice-cold PBS. Cells were lysed with 50 μL lysis buffer (0.1 N NaOH, 0.1% Triton X-100) and plate was sealed with Tape Pads and vortexed. For the saponification reaction plates were incubated for 16-24 hours at 80° C. Seals were removed and 200 μL 0.1 N HCl was added for neutralisation of the pH. 150 μL from each well was transferred into the corresponding wells of a 96-well Flash plate (Perkin Elmer) and sealed with TopSeal A (Perkin Elmer). Plates were incubated for 4 h at 70° C., and for 1 h at room temperature in the dark. Signal of ^14C radioactivity was measured (TopCount). As a positive control 5 mM unlabelled citrate or C75 (Sigma, C5490) was applied.

O=C1NCCCOc2cccc(c2)-c2cc(c(F)cc2F)NS(=O)(=O)c2cc1cc(Cl)c2O [Compound 5, 11-chloro-3,5-difluoro-10-hydroxy-19-oxa-8lambda6-thia-7,15-diazatetracyclo[18.3.1.1^2,6.1^9,13]hexacosa-1(23),2(26),3,5,9(25),10,12,20(24),21-nonaene-8,8,14-trione]
IC50 [1]: 10 to 1000 nM | IC50 (ACLY [2]): 100 to 10000 nM | IC50 (ACLY [3]): ≥ 50000 nM

COc1c(Cl)cc2cc1S(=O)(=O)Nc1cc(ccc1F)N1CCC[C@@H]1CCOC2=O
ring closure, isolated yield (from 3-chloro-5-[[2-fluoro-5-[(2R)-2-(2-hydroxyethyl)221pyrrolidine-1-yl]phenyl]sulfamoyl]-4-methoxybenzoic acid, ester bond, 14-membered ring, DCC/DMAP, DCM, 26.0 mM): 77%

C[C@@H]1COc2ccccc2-c2cc(c(F)cc2F)NS(=O)(=O)c2cc(cc(Cl)c2O)C(=O)N1 [Compound 19, (10R)-15-chloro-21,23-difluoro-16-hydroxy-10-methyl-8-oxa-18lambda6-thia-11,19-diazatetracyclo[18.3.1.1^13,17.0^2,7]pentacosa-1(24),2,4,6,13,15,17(25),20,22-nonaene-12,18,18-trione]
IC50 [1]: 10 to 1000 nM | IC50 (ACLY [2]): 100 to 10000 nM | IC50 (ACLY [3]): ≥ 50000 nM

COc1c(Cl)cc2cc1S(=O)(=O)Nc1cc(ccc1F)-c1ccccc1CCCOC2
ring closure, isolated yield (from COc1c(Cl)cc(CBr)cc1S(=O)(=O)Nc1cc(-c2ccccc2CCCO)ccc1F, ether bond, 15-membered ring, NaH, THF, 13.0 mM, 50.0 °C, 2.0 h): 46%

COc1c(Cl)cc2cc1S(=O)(=O)Nc1cc(c(F)cc1F)-c1ccccc1C(C)CCOC2=O (stereo not drawn)
ring closure, isolated yield (from COc1c(Cl)cc(C(=O)O)cc1S(=O)(=O)Nc1cc(-c2ccccc2C(C)CCO)c(F)cc1F, ester bond, 15-membered ring, DCC/DMAP, DCM, 19.8 mM, 25.0 °C, 2.0 h): 72%

O=C1OCCOc2ccccc2-c2cc(c(F)cc2F)NS(=O)(=O)c2cc1cc(Cl)c2C(F)F
ring closure, isolated yield (from O=C(O)c1cc(Cl)c(C(F)F)c(S(=O)(=O)Nc2cc(-c3ccccc3OCCO)c(F)cc2F)c1, ester bond, 15-membered ring, DCC/DMAP, DCM, 33.0 mM, 25.0 °C, 1.5 h): 53%

COc1c(Cl)cc2cc1S(=O)(=O)Nc1cc(ccc1C(F)(F)F)-c1ccccc1OCCOC2=O
ring closure, isolated yield (from COc1c(Cl)cc(C(=O)O)cc1S(=O)(=O)Nc1cc(-c2ccccc2OCCO)ccc1C(F)(F)F, ester bond, 15-membered ring, DCC/DMAP, DCM, 16.8 mM, 25.0 °C, 1.0 h): 42%

COc1c(Cl)cc2cc1S(=O)(=O)Nc1cc(c(F)cc1F)-c1ccccc1N1CC(COC2=O)C1
ring closure, isolated yield (from 3-chloro-5-[[2,4-difluoro-5-[2-[3-(hydroxymethyl)229azetidine-1-yl]phenyl]phenyl]sulfamoyl]-4-methoxybenzoic acid, ester bond, 16-membered ring, DCC/DMAP, DCM, 25.0 mM): 60%

COc1c(Cl)cc2cc1S(=O)(=O)Nc1cc(c(F)cc1F)-c1ccccc1OCCNC2=O [Compound 1, 15-chloro-21,23-difluoro-16-methoxy-8-oxa-18lambda6-thia-11,19-diazatetracyclo[18.3.1.1^13,17.0^2,7]pentacosa-1(24),2,4,6,13,15,17(25),20,22-nonaene-12,18,18-trione]
ring closure, isolated yield (amide bond, 15-membered ring, T3P/DIPEA, EtOAc/DMF, 4.9 mM): 72% | IC50 [1]: ≥ 1000 nM

COc1c(Cl)cc2cc1S(=O)(=O)Nc1cc(ccc1F)-c1ccccc1CCOC2
ring closure, isolated yield (from COc1c(Cl)cc(CBr)cc1S(=O)(=O)Nc1cc(-c2ccccc2CCO)ccc1F, ether bond, 14-membered ring, NaH, THF, 12.7 mM, 50.0 °C, 2.5 h): 78%

COc1c(Cl)cc2cc1S(=O)(=O)Nc1cc(c(F)cc1F)Oc1cccc(c1)COC2=O
ring closure, isolated yield (from COc1c(Cl)cc(C(=O)O)cc1S(=O)(=O)Nc1cc(Oc2cccc(CO)c2)c(F)cc1F, ester bond, 15-membered ring, DCC/DMAP, DCM, 19.8 mM, 3.0 h): 72%

COc1ccc2cc1C(=O)N1CCc3cc(F)c(cc31)-c1ccccc1OCCNC2=O
ring closure, isolated yield (from 3-[6-[2-(2-aminoethoxy)phenyl]-5-fluoro-indoline-1-carbonyl]-4-methoxybenzoic acid·HCl, amide bond, 15-membered ring, T3P/DIPEA, DMF, 11.6 mM): 24%

O=C1OCCOc2ccccc2-c2cc(c(F)cc2F)NS(=O)(=O)c2cc1cc(Cl)c2O [Compound 7, 15-chloro-21,23-difluoro-16-hydroxy-8,11-dioxa-18lambda6-thia-19-azatetracyclo[18.3.1.1^13,170^2,7]pentacosa-1(24),2,4,6,13,15,17(25),20,22-nonaene-12,18,18-trione]
IC50 (HepG2 cells): < 2000 nM

O=C1NCCOc2cccc(c2)-c2cc(c(F)cc2F)NS(=O)(=O)c2cc1cc(Cl)c2O [Compound 3, 11-chloro-3,5-difluoro-10-hydroxy-18-oxa-8lambda6-thia-7,15-diazatetracyclo[17.3.1.1^2,6.1^9,13]pentacosa-1(22),2(25),3,5,9(24),10,12,19(23),20-nonaene-8,8,14-trione]
IC50 [1]: 10 to 1000 nM | IC50 (ACLY [2]): 100 to 10000 nM | IC50 (ACLY [3]): ≥ 50000 nM

COc1c(Cl)cc2cc1S(=O)(=O)Nc1cc(c(F)cc1F)-c1ccccc1COC2=O
ring closure, isolated yield (from COc1c(Cl)cc(C(=O)O)cc1S(=O)(=O)Nc1cc(-c2ccccc2CO)c(F)cc1F, ester bond, 13-membered ring, DCC/DMAP, DCM, 21.8 mM, 26.5 h): 43%

COc1c(Cl)cc2cc1S(=O)(=O)Nc1cc(c(F)cc1F)-c1cccc3c1OC(COC2=O)C3 (stereo not drawn)
ring closure, isolated yield (from COc1c(Cl)cc(C(=O)O)cc1S(=O)(=O)Nc1cc(-c2cccc3c2OC(CO)C3)c(F)cc1F, ester bond, 15-membered ring, DCC/DMAP, DCM, 29.5 mM, 25.0 °C, 2.0 h): 70%

COc1c(Cl)cc2cc1S(=O)(=O)Nc1cc(c(F)cc1F)-c1ccccc1COC(=O)C2
ring closure, isolated yield (from COc1c(Cl)cc(CC(=O)O)cc1S(=O)(=O)Nc1cc(-c2ccccc2CO)c(F)cc1F, ester bond, 14-membered ring, DCC/DMAP, DCM, 12.7 mM, 3.0 h): 19%

O=C1OCCCOc2ccccc2-c2cc(c(F)cc2F)NS(=O)(=O)c2cc1cc(Cl)c2O [Compound 20, 16-chloro-22,24-difluoro-17-hydroxy-8,12-dioxa-19lambda6-thia-20-azatetracyclo[19.3.1.1^14,18.0^2,7]hexacosa-1(25),2,4,6,14,16,18(26),21,23-nonaene-13,19,19-trione]
IC50 [1]: < 1 nM | IC50 (ACLY [2]): < 20 nM | IC50 (ACLY [3]): 300 to 1000 nM

CN1Cc2ccccc2-c2cc(c(F)cc2F)NS(=O)(=O)c2cc(cc(Cl)c2O)C1=O [Compound 91, 13-chloro-19,21-difluoro-14-hydroxy-9-methyl-16,16-dioxo-16λ6-thia-9,17-diazatetracyclo[16.3.1.111,15.02,7]tricosa-1(22),2,4,6,11(23),12,14,18,20-nonaen-10-one]
IC50 (ACLY [2]): 100 to 10000 nM | IC50 (ACLY [3]): ≥ 50000 nM

N#Cc1ccc2c(c1)COC(=O)c1cc(Cl)c(O)c(c1)S(=O)(=O)Nc1cc-2c(F)cc1F [Compound 85, 13-chloro-19,21-difluoro-14-hydroxy-10,16,16-trioxo-9-oxa-16λ6-thia-17-azatetracyclo[16.3.1.111,15.02,7]tricosa-1(21),2(7),3,5,11,13,15(23),18(22),19-nonaene-5-carbonitrile]
IC50 (ACLY [2]): < 20 nM | IC50 (ACLY [3]): ≥ 50000 nM

O=C1OCCc2cc(F)ccc2-c2ccc(F)c(c2)NS(=O)(=O)c2cc1cc(Cl)c2O [Compound 73, 14-chloro-5,20-difluoro-15-hydroxy-17,17-dioxo-10-oxa-17λ6-thia-18-azatetracyclo[17.3.1.112,16.02,7]tetracosa-1(22),2(7),3,5,12,14,16(24),19(23),20-nonaen-11-one]
IC50 (ACLY [2]): 20 to 100 nM | IC50 (ACLY [3]): < 300 nM
